Several values for one entry are separate records, joined by “and”; a condition that tells them apart may be missing. Identical values can stand only once.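 Results reflect a 48-hour exposure of cells in 96-well plates to compound at five concentrations. Abbreviation: GI50, concentration required for 50% inhibition of growth. TGI: total growth inhibition.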
Legend:
Test in all cases: growth of human tumour cells (NCI), 48 h
[1] = tested on: HOP-62 NSCLC
[2] = tested on: NCI-H522 lung
[3] = tested on: 786-0 renal
[4] = tested on: SK-MEL-28 melanoma
[5] = tested on: SK-MEL-5 melanoma
[6] = tested on: MDA-MB-435
[7] = tested on: DU-145 prostate
[8] = tested on: NCI-H23 lung
[9] = tested on: PC-3 prostate
[10] = tested on: HCT-15 colon

## COC(=O)c1ccc(NC(=O)Oc2ccc(N(CCCl)CCCl)cc2)cc1
[1]
  GI50: 3.99 µM
  TGI: 24.8 µM
[2]
  GI50: 3.47 µM
  TGI: 16.3 µM
[3]
  GI50: 4.95 µM
  TGI: 25.6 µM
[4]
  GI50: 30.7 µM
  TGI: > 100 µM
[5]
  GI50: 13.1 µM
  TGI: > 100 µM
[6]
  GI50: 11.5 µM
  TGI: > 100 µM
[7]
  GI50: 3.6 µM
  TGI: 19.9 µM
[8]
  GI50: 4.75 µM
  TGI: > 100 µM
[9]
  GI50: 11.4 µM
  TGI: > 100 µM
[10]
  GI50: 11.2 µM
  TGI: > 100 µM

## c1cc2c(cn1)Nc1ccncc1S2
[1]
  GI50: 14.9 µM
  TGI: 57.4 µM
[2]
  GI50: 40.4 µM
  TGI: > 100 µM
[3]
  GI50: 23.7 µM
  TGI: 78.1 µM
[4]
  GI50: > 100 µM
  TGI: > 100 µM
[5]
  GI50: 36.3 µM
  TGI: > 100 µM
[6]
  GI50: 73.9 µM
  TGI: > 100 µM
[7]
  GI50: 44.5 µM
  TGI: > 100 µM
[8]
  GI50: 43.4 µM
  TGI: > 100 µM
[9]
  GI50: 41.7 µM
  TGI: > 100 µM
[10]
  GI50: 37.4 µM
  TGI: > 100 µM

## Cc1ccc(S(=O)(=O)NC(CN)C(=O)O)cc1 (stereo unspecified)
[1]
  TGI: > 100 µM
[2]
  TGI: > 100 µM
[3]
  TGI: > 100 µM
[4]
  TGI: > 100 µM
[5]
  TGI: > 100 µM
[6]
  TGI: > 100 µM
[7]
  TGI: > 100 µM
[8]
  TGI: > 100 µM
[9]
  TGI: > 100 µM
[10]
  TGI: > 100 µM

## CCOC(=O)c1cnc2c(C)cccc2c1Nc1ccc(C(C)=O)cc1
[1]
  GI50: 39.7 µM
  TGI: > 100 µM
[2]
  GI50: 14.9 µM
  TGI: > 100 µM
[3]
  GI50: 16.9 µM
  TGI: 42.3 µM
[4]
  GI50: 50.2 µM
  TGI: > 100 µM
[5]
  GI50: 3.75 µM
  TGI: 19.7 µM
[6]
  GI50: > 100 µM
  TGI: > 100 µM
[7]
  GI50: 33.3 µM
  TGI: > 100 µM
[8]
  GI50: 28.5 µM
  TGI: > 100 µM
[9]
  GI50: 36.6 µM
  TGI: > 100 µM
[10]
  GI50: 20.7 µM
  TGI: > 100 µM

## COC(=O)CSSCc1ccc([N+](=O)[O-])cc1
[1]
  TGI: 42.4 µM
[2]
  TGI: 30.8 µM
[3]
  TGI: 65.3 µM
[4]
  TGI: 36.7 µM
[5]
  TGI: 50.9 µM
[6]
  TGI: 31.3 µM
[7]
  TGI: 50.7 µM
[8]
  TGI: > 100 µM
[9]
  TGI: 81 µM
[10]
  TGI: 48 µM

## COc1ccc(N=N/C(C(=O)C(F)(F)F)=C(\O)c2ccc(Cl)cc2)cc1
[1]
  GI50: 15.5 µM
  TGI: 63.4 µM
[2]
  GI50: 4.93 µM
  TGI: 32.1 µM
[3]
  GI50: 6.63 µM
  TGI: 83.6 µM
[4]
  GI50: 7.22 µM
  TGI: > 100 µM
[5]
  GI50: 3.63 µM
  TGI: 14.3 µM
[6]
  GI50: 2.49 µM
  TGI: 8.77 µM
[7]
  GI50: 14.6 µM
  TGI: 70.8 µM
[8]
  GI50: 11 µM
  TGI: 54.4 µM
[9]
  GI50: 10.4 µM
  TGI: > 100 µM
[10]
  GI50: 4.68 µM
  TGI: > 100 µM

## NC(=S)c1c(N)n(C2OC(CO)C(O)C2O)c2ncnc(N)c12 (stereo unspecified)
[1]
  GI50: 0.21 µM
  TGI: 0.904 µM
[2]
  GI50: 0.188 µM
  TGI: 0.479 µM
[3]
  GI50: 0.304 µM
[4]
  GI50: 0.295 µM
  TGI: 1.81 µM
[5]
  GI50: 0.162 µM
  TGI: 2.05 µM
[6]
  GI50: 0.259 µM
  TGI: 1.01 µM
[7]
  GI50: 0.278 µM
  TGI: > 100 µM
[8]
  GI50: 0.258 µM
  TGI: 1.14 µM
[9]
  GI50: 0.221 µM
[10]
  GI50: 0.0573 µM
  TGI: 0.435 µM

## C=CC(=O)N1CC2(CC(n3nc(-c4ccc5c(cnn5C)c4)c(-c4c(Cl)c(C)cc5[nH]ncc45)c3C)C2)C1
[1]
  TGI: 19.5 µM
[2]
  GI50: 2.09 µM
  TGI: 5.15 µM
[3]
  GI50: 3.71 µM
  TGI: 15.4 µM
[4]
  GI50: 2.44 µM
  TGI: 5.44 µM
[5]
  GI50: 1.61 µM
  TGI: 3.02 µM
[6]
  GI50: 2.72 µM
  TGI: 7.65 µM
[7]
  GI50: 3.11 µM
  TGI: 9.45 µM
[8]
  TGI: 1.72 µM
[9]
  GI50: 3.59 µM
  TGI: 22.8 µM
[10]
  GI50: 1.54 µM
  TGI: 3.05 µM

## CCN(CC)Cc1cc2[nH]c3c4ccc(Cl)cc4ncc3c2cc1OC
[1]
  GI50: 5.41 µM and 2.01 µM
  TGI: 11.7 µM and 9.34 µM
[2]
  GI50: 7.16 µM and 2.2 µM
  TGI: 17.7 µM and 4.97 µM
[3]
  GI50: 2.2 µM and 2.59 µM
  TGI: 4.82 µM and 5.61 µM
[4]
  GI50: 1.95 µM and 1.88 µM
  TGI: 3.53 µM and 3.42 µM
[5]
  GI50: 1.61 µM and 1.62 µM
  TGI: 3 µM and 2.98 µM
[6]
  GI50: 1.78 µM and 1.75 µM
  TGI: 3.55 µM and 3.4 µM
[7]
  GI50: 3 µM and 2.46 µM
  TGI: 9.18 µM and 6.38 µM
[8]
  GI50: 6.07 µM and 3.33 µM
  TGI: 20.3 µM and 14.4 µM
[9]
  GI50: 3.18 µM and 1.99 µM
  TGI: 16 µM and 6.8 µM
[10]
  GI50: 2.05 µM and 2.46 µM
  TGI: 8.66 µM and 6.94 µM

## CC1=C(Nc2ccc(N3CCN(C)CC3)cc2)C(=O)c2cncnc2C1=O
[1]
  GI50: 19.2 µM
  TGI: 60.4 µM
[2]
  GI50: 16.1 µM
  TGI: 39.3 µM
[3]
  GI50: 20.4 µM
  TGI: 52.5 µM
[4]
  GI50: 17.1 µM
  TGI: 43.3 µM
[5]
  GI50: 14.4 µM
  TGI: 27.6 µM
[6]
  GI50: 1.87 µM
  TGI: 3.4 µM
[7]
  GI50: 4.34 µM
  TGI: 16.9 µM
[8]
  GI50: 6.26 µM
  TGI: 32.7 µM
[9]
  GI50: 3.05 µM
  TGI: 11.9 µM
[10]
  GI50: 12.9 µM
  TGI: 41 µM
